Patent publication US9139525B2, “N-oxide and/or di-N-oxide derivatives of dopamine receptor stabilizers/modulators displaying improved cardiovascular side-effects profiles” (TEVA PHARMACEUTICALS INTERNATIONAL GMBH, priority 2007, dated 2015)

What was measured:
[1] = tested on: dopamine, DOPAC and 5-HIAA in the striatum; assay: Microdialysis in rat striatum (freely moving rats; dopamine, DOPAC and 5-HIAA by HPLC with electrochemical detection); assay type: in vivo
Description: Microdialysis in Rat Striatum Standard microdialysis experiments were performed on-line in freely moving rats. The striatum was perfused with a Ringer solution and dopamine, DOPAC and 5-HIAA were quantified by HPLC with electrochemical detection.

[2] = after S-3-OTf-3-PPP-N-ox (13) 100 μmol/kg p.o.; between 0 h and 6 h; sampled every 1 h
Description: 3-OTf-3-PPP-N-ox was measured at Rt=11.68 min with a +MRM of 368/235. Precursor 3-OTf-3-PPP was measured at Rt=11.50 min with a +MRM of 352/219.

[3] = oral administration, 91 μmol/kg

For `CCC[N+]1([O-])CCCC(c2cccc(OS(=O)(=O)C(F)(F)F)c2)C1` (centres unmarked) [S-3-PPP triflate-N-oxide, S-Trifluoromethanesulfonic acid 3-(1-propyl-piperidin-3-yl)-phenyl ester-1-oxide], the “3,4-dihydroxyphenylacetic acid (DOPAC) level, maximum” value ([1]; 100 μmol/kg per os) was about 150%, the “dopamine (DA) level, maximum” value ([1]; 100 μmol/kg per os) was “about 230%” and the “level of 5-hydroxyindolacetic acid (HIAA)” value ([1]; 100 μmol/kg per os) was “around 100%”. For the same compound, the “time of maximum of DA and DOPAC level” value ([1]; 100 μmol/kg per os) was “about 120 minutes”, the “course of DA and DOPAC levels after the maximum” value ([1]; 100 μmol/kg per os, whole experiment (6 h)) was “constant over the whole experiment” and the “pharmacological effect and duration of action” value ([1]; microdialysis in rat striatum) was “pronounced pharmacological effect with a very long duration of action”.
In the case of `CCC[N+]1([O-])CCC(c2cccc(S(C)(=O)=O)c2)CC1` (centres unmarked) [ACR16 N-oxide, 4-(3-Methanesulfonyl-phenyl)-1-propyl-piperidine-1-oxide], the “3,4-dihydroxyphenylacetic acid (DOPAC) level” value ([1]; 50 μmol/kg per os) is reported as “slight rise”, the “dopamine (DA) level” value ([1]; 50 μmol/kg per os, after about 45 minutes) is reported as “considerable rise” and the “3,4-dihydroxyphenylacetic acid (DOPAC) level” value ([1]; 100 μmol/kg per os given at 180 minutes after a first 50 μmol/kg per os) is reported as “goes up”. For the same compound, the “level of dopamine, maximum height” value ([1]; 100 μmol/kg per os given at 180 minutes after a first 50 μmol/kg per os, peak after 240 minutes) was “more than 250 % of controls”.
For `CCC[N+]1([O-])CC=C(c2cccc(S(C)(=O)=O)c2)CC1` (centres unmarked) [ACR16-ene-N-ox, 4-(3-Methanesulfonyl-phenyl)-1-propyl-1,2,3,6-tetrahydro-pyridine-N-oxide], the DA release [1, 3] was “about 300 % of controls”, the DOPAC release [1, 3] was “about 300 % of controls” and the “duration of the effects on DA and DOPAC release” value [1, 3] was over 4 h.
For `CCCN1CCC[C@@H](c2cccc(OS(=O)(=O)C(F)(F)F)c2)C1` [(−)-3-PPP triflate, S-3-Trifluoro-methanesulfonyloxy-(1-n-propyl-phenyl)piperidine, reference compound], the “3,4-dihydroxyphenylacetic acid (DOPAC) level, maximum” value ([1]; 100 μmol/kg per os) was “about 175%”, the “dopamine (DA) level, maximum” value ([1]; 100 μmol/kg per os) was “about 175%” and the “level of 5-hydroxyindolacetic acid (HIAA)” value ([1]; 100 μmol/kg per os) was “around 100%”. The “time of maximum of DA and DOPAC level” value ([1]; 100 μmol/kg per os) was “about 150 minutes”, the “levels of dopamine and DOPAC after about 195 minutes” value ([1]; 100 μmol/kg per os, after about 195 minutes (3.25 hours)) was “decrease” and the “dopamine level, second rise” value ([1]; 100 μmol/kg per os, after about 240 minutes (4 hours)) was 350 % of controls. The “striatal concentration of the precursor after dosing of the N-oxide” value [2] was “continuous rise”.
